According to US7635686B2, “Therapeutically useful triethyleneglycol cholesteryl oligonucleotides” (Bioniche Life Sciences, Inc., priority 2001, dated 2009):
{TEG-Chol} = cholesteryl attached through a triethyleneglycol (TEG) spacer, added as cholesteryl-TEG phosphoramidite

What was measured:
[1] = system: Streptococcal cell wall-induced arthritis; test: Streptococcal cell wall-induced arthritis in rats; format: in vivo, LEW/N rats; conditions: 1, 10, 100 mg/kg with SCW, monitored daily for two weeks; versus SCW alone and unconjugated sequences; dose-dependent
Experimental: Streptococcal cell wall-induced arthritis in LEW/N rats resembles a localized neoplasm consisting of, in part, of a proliferative and invasive population of fibroblast-like synovial cells (Yocum et al., Am. J. Pathol. 132:38, 1988). The arthritis is induced in LEW/N rats by intra-articular injection of streptocococcal cell wall (SCW) from group A Streptococcus pyogenes. The rats are divided into 13 groups of 10 rats. On day 0, group 1 rats receive SCW, group 2 rats receive SCW+1 mg/kg SEQ ID NO:1, group 3 rats receive SCW+10 mg/kg SEQ ID NO:1, group 4 rats receive SCW+100 mg/kg SEQ ID NO:1, group 5 rats receive SCW+1 mg/kg SEQ ID NO:2, group 6 rats receive SCW+10 mg/kg SEQ ID NO:2, group 7 rats receive SCW+100 mg/kg SEQ ID NO:2, group 8 rats receive SCW+1 mg/kg SEQ ID NO:5, group 9 rats receive SCW+10 mg/kg SEQ ID NO:5, group 10 rats receive SCW+100 mg/kg SEQ ID NO:5, group 11 rats receive SCW+1 mg/kg SEQ ID NO:6, group 12 rats receive SCW+10 mg/kg SEQ ID NO:6, group 13 rats receive SCW+[…]. The joint inflammation is monitored daily for two weeks.

HIG-82 cells [2] = test: Apoptosis by nuclear DNA fragmentation (TUNEL, flow cytometry) in HIG-82 cells; format: cell-based, rabbit; conditions: 53 μM; for Percentage of cells containing DNA fragmentation (cells in apoptosis) in HIG-82 cells: 48 hours, TUNEL; for Induction of apoptosis in HIG-82 cells (in words): fragmented nuclear DNA
Experimental: Adherent HIG-82 cells were incubated at 1.0×10^5 cells/ml for 48 hours with 53 μM final concentration of SEQ ID NO:1, SEQ ID NO:2, SEQ ID NO:5 or SEQ ID NO:6. Since phosphatidylserine/annexin V detection of apoptosis was not reliable after adherent cell harvesting techniques, such as trypsinization (van Engeland, Cytometry, 31:1, 1998), apoptosis in HIG-82 cells was evaluated using flow cytometry by the detection of fragmented DNA by terminal deoxynucleotidyl transferase enzyme-mediated bromodeoxyuridine triphosphate-biotin nick end-labeling (TUNEL) using a commercial assay (APO-BRDU™ kit; BD Pharmingen). The percentage of cells containing nuclear DNA fragmentation was determined. After 24 hours, untreated HIG-82 cells were essentially negative for nuclear DNA fragmentation.

MEG-01 cells [3] = test: MEG-01 cells inoculated subcutaneously in athymic nude mice; format: in vivo; conditions: 1, 10, 100 mg/kg, after 4 weeks of treatment; versus saline and unconjugated sequences; dose-dependent
Experimental: MEG-01 cells are inoculated subcutaneously into athymic nude mice as previously described (Takeo et al., Leukemia 7:1286, 1993). The mice are divided into 13 groups of 10 mice. On day 0, group 1 mice receive saline, group 2 mice receive 1 mg/kg SEQ ID NO:1, group 3 mice receive 10 mg/kg SEQ ID NO:1, group 4 mice receive 100 mg/kg SEQ ID NO:1, group 5 mice receive 1 mg/kg SEQ ID NO:2, group 6 mice receive 10 mg/kg SEQ ID NO:2, group 7 mice receive 100 mg/kg SEQ ID NO:2, group 8 mice receive 1 mg/kg SEQ ID NO:5, group 9 mice receive 10 mg/kg SEQ ID NO:5, group 10 mice receive 100 mg/kg SEQ ID NO:5, group 11 mice receive 1 mg/kg SEQ ID NO:6, group 12 mice receive 10 mg/kg SEQ ID NO:6 and group 13 mice receive 100 mg/kg SEQ ID NO:6 After 4 weeks of treatment, the mice are sacrificed and tumor mass is determined.

MCF-7 cells = test: MATRIGEL outgrowth after 1 hr pre-incubation, MCF-7; format: cell-based, human; conditions: MCF-7, 53 μM pre-incubation 1 hr, 3 days on MATRIGEL, FIG. 1
Experimental: (§1) Various in vitro and in vivo assays may be used to evaluate the influence of the extracellular microenvironment on behavior of normal cells and tumor cells. Such assays may employ MATRIGEL® (Becton Dickinson, Franklin Lakes, N.J.), which is a solubilized basement membrane preparation extracted from the Engelbreth-Holm-Swarm murine sarcoma.
(§2) MCF-7, MDA-MB-231 (MDA-231), Hs578T and Mpanc-96 cells were cultured separately in regular culture medium, trypsinized, and counted. 100×10^3 of MDA-231 cells, 100×10^3 of Hs578T cells, 150×10^3 of MCF-7 cells and 150×10^3 of Mpanc-96 cells were separately pre-incubated for 1 hr at 37° C. in a final concentration of 53 μM of SEQ ID NO:1, 53 μM of SEQ ID NO:5 or RCM, and plated on top of MATRIGEL®-coated plates (MATRIGEL® Basement membrane matrix coated cellware 24-well plate,) for 3 days. Plates were fixed with 10% formalin. Digital photographs of the cells in the 24-well plates were taken using a Nikon Coolpix 990 digital camera (Nikon Corporation, Tokyo, Japan) connected to a Nikon inverted microscope model TMS.

Hs578T cells = test: MATRIGEL outgrowth after 1 hr pre-incubation, Hs578T; format: cell-based, human; conditions: 53 μM pre-incubation 1 hr, 3 days on MATRIGEL, FIG. 1 and FIG. 2
Experimental: as §1, §2
(§3) MDA-MB-231 (MDA-231) and Hs578T were cultured in regular culture medium, trypsinized and counted. 100×10^3 of MDA-MB-231 cells or 100×10^3 of Hs578T cells, were separately pre-incubated for 1 hr at 37° C. in a final concentration of 53 μM of SEQ ID NO:4, 53 μM of SEQ ID NO:8 or RCM and plated on MATRIGEL®-coated plates for 3 days. Plates were fixed with 10% formalin. Digital photographs of the cells in the 24-well plates were taken using a Nikon Coolpix 990 digital camera (Nikon Corporation, Tokyo, Japan) connected to a Nikon inverted microscope model TMS.

MEG-01 cells [4] = test: Apoptosis by phosphatidylserine redistribution (FITC-annexin V flow cytometry) in MEG-01 cells; format: cell-based, human; conditions: 48 hours; for Percentage of positive cells for phosphatidylserine (cells in apoptosis) in MEG-01 cells: untreated cells 12%; for Induction of apoptosis in MEG-01 cells (in words): translocation of phosphatidylserine, up to 53.0 μM
Experimental: Redistribution of plasma membrane phosphatidylserine is a characteristic of cells undergoing apoptosis (Martin et al., J. Exp. Med., 182:1545, 1995). The redistribution of phosphatidylserine in the plasma membrane during apoptosis was measured by flow cytometry using FITC (fluorescein isothiocyanate)-conjugated annexin V (BD Pharmingen, San Diego, Calif.). MEG-01 cells, a human chronic myelogeneous leukemia cell line positive for the Philadelphia chromosome and having a BCR-ABL gene fusion, were incubated at 2.5×10^5 cells/ml for 48 hours with 5.3, 26.5 and 53.0 μM final concentrations of SEQ ID NO:1, SEQ ID NO:2, SEQ ID NO:5, SEQ ID NO:6 and cholesteryl-TEG phosphoramidite molecule. The percentage of cells in apoptosis after exposure to the SEQ ID NOs:1, 2, 5, 6, or cholesteryl-TEG phosphoramidite treatment is reported in Table 2. The percentage of apoptosis in untreated MEG-01 cells was 12%.

Mpanc-96 cells = test: MATRIGEL outgrowth after 1 hr pre-incubation, Mpanc-96; format: cell-based, human; conditions: Mpanc-96, 53 μM pre-incubation 1 hr, 3 days on MATRIGEL, FIG. 1
Experimental: as §1, §2

[5] = system: MDA-MB-231 (MDA-231) cells; test: MATRIGEL outgrowth after 1 hr pre-incubation, MDA-231; format: cell-based, human; conditions: MDA-231, 53 μM pre-incubation 1 hr, 3 days on MATRIGEL, FIG. 1 and FIG. 2
Experimental: as §1, §2, §3

HIG-82 cells [6] = test: HIG-82 synovial cell proliferation (MTT reduction); format: cell-based, rabbit; conditions: 53 μM, 48 hours
Experimental: Adherent HIG-82 cells, a synovial cell line, were incubated at 10×10^5 cells/ml for 48 hours with 53 μM (final concentration) of SEQ ID NO:2, SEQ ID NO:3, SEQ ID NO:4, SEQ ID NO:6, SEQ ID NO:7, or SEQ ID NO:8. Cellular proliferation was measured using dimethylthiazol-diphenyl-tetrazolium (MTT) reduction (Mosman et al., J. Immunol. Methods 65:55, 1983). MTT was measured at a wavelength of 570 nm using a multiple spectrophotometer reader (ELX800, Bio-TEK, Instruments Inc., Winooski, Vt.). The percentage of inhibition, calculated as […]

MEG-01 cells [7] = test: Cell cycle stage in MEG-01 cells (propidium iodide flow cytometry); format: cell-based, human; conditions: 24 h
Experimental: To determine a cell cycle stage, various assays and procedures known to one skilled in the art may be employed. One such procedure uses a CYCLETEST™ PLUS DNA commercial kit (Becton Dickinson, Franklin Lakes, N.J.). Briefly, nuclei from cells are obtained by dissolving the cell membrane in a nonionic detergent, eliminating the cell cytoskeleton and nuclear proteins with trypsin, digesting the cellular RNA with RNase, and stabilizing the nuclear chromatin with spermine. Propidium iodide is added to the cell nuclei and their fluorescence was analyzed in a flow cytometer equipped with electronic doublet discrimination capability (FACSCalibur, Becton Dickinson, Franklin Lakes, N.J.). Accumulation of cells in G0/G1, early S (SE), mid S (SM), late S (SL) or G2/M phases of the cell cycle may be analyzed using MODFIT LT software (Verity Software House Inc., Topsham, Mass.), or other appropriate software.
Exponentially growing MEG-01 cells (2×10^5 cells/ml) were incubated for 24 h with 0 μM (control), 53 μM of SEQ ID NO:2 or 53 μM of SEQ ID NO:6. The cells were collected, centrifuged, and cell cycle stage was determined.

MDA-MB-231 cells = test: Release of nuclear mitotic apparatus protein (NuMA) by MDA-MB-231 cells (ELISA); format: cell-based, human; conditions: MDA-MB-231 monolayers, 53 μM, 72 hrs; percentage increase
Experimental: MDA-MB-231 cells were cultured as monolayers in respective control media, with 53 μM final concentration of SEQ ID NO:1 or 53 μM final concentration of SEQ ID NO:5 for 72 hrs. The release of nuclear mitotic apparatus protein (NuMA) was used as a measure of apoptosis. NuMA was determined using a commercial (ELISA kit (Oncogene, Cambridge, Mass.) following the manufacturer's protocol. Results are shown in Table 10 and are expressed as the percentage increase in NuMA release compared to respective controls based on optical density measurements.

Row | Substance | Joint inflammation [1] | Percentage of cells containing DNA fragmentation (cells in apoptosis) in HIG-82 cells (HIG-82 cells [2]) [%] | Induction of apoptosis in HIG-82 cells (in words) (HIG-82 cells [2]) | Tumor mass (MEG-01 cells [3]) | Formation of 3-dimensional structures / cell morphology on MATRIGEL (MCF-7 cells) | Formation of 3-dimensional structures / cell morphology on MATRIGEL (Hs578T cells) | Percentage of positive cells for phosphatidylserine (cells in apoptosis) in MEG-01 cells (MEG-01 cells [4]; 5.3 μM) [%] | Percentage of positive cells for phosphatidylserine (cells in apoptosis) in MEG-01 cells (MEG-01 cells [4]; 26.5 μM) [%] | Percentage of positive cells for phosphatidylserine (cells in apoptosis) in MEG-01 cells (MEG-01 cells [4]; 53.0 μM) [%] | Induction of apoptosis in MEG-01 cells (in words) (MEG-01 cells [4]) | Formation of 3-dimensional structures / cell morphology on MATRIGEL (Mpanc-96 cells) | Formation of 3-dimensional structures / cell morphology on MATRIGEL [5] | Inhibition of proliferation of synovial HIG-82 cells (in words) (HIG-82 cells [6]) | Inhibition of HIG-82 cell proliferation, inhibition (%) (HIG-82 cells [6]; MTT) | Induction of cell cycle arrest in MEG-01 cells (in words) (MEG-01 cells [7]; 53 μM) | % of cells in phase SM (MEG-01 cells [7]; MEG-01, 53 μM, untreated 10.8) [%] | % of cells in phase SL + G2/M (MEG-01 cells [7]; MEG-01, 53 μM, untreated 17.8) [%] | % of cells in phase G0/G1 + SE (MEG-01 cells [7]; MEG-01, 53 μM, untreated 71.4) [%] | NuMA release compared to controls (%) (MDA-MB-231 cells)
1 | 5′ OH-GGGTGG(TEG-cholesteryl) 3′ [SEQ ID NO:5] | less inflammation | 17 | capacity to induce apoptosis | less tumor mass | prevented the formation of 3-dimensional structures | prevented the formation of 3-dimensional structures | 12 | 27 | 42 | capacity to induce apoptosis | prevented the formation of 3-dimensional structures | prevented the formation of 3-dimensional structures | – | – | – | – | – | – | –
2 | 5′ OH-GGGAGG(TEG-cholesteryl) 3′ (3' {TEG-Chol}, sugars by position and backbone not given here) [SEQ ID NO:6, 5′-OH, 3′-TEG cholesteryl synthetic oligonucleotide] | less inflammation | 18 | capacity to induce apoptosis | less tumor mass | – | – | 13 | 22 | 39 | capacity to induce apoptosis | – | – | capacity to inhibit the cellular proliferation | 75 | capacity to induce cell cycle arrest at the SL+G2/M phase | 6.5 | 41.9 | 51.6 | –
3 | 5′ OH-GGGTGG-OH 3′ [SEQ ID NO:1] | – | 1 | inactive | – | did not change cell morphology | did not change cell morphology | 12 | 12 | 12 | inactive | did not change cell morphology | did not change cell morphology | – | – | – | – | – | – | +5%
